Like-named read-outs stand apart in the source and are kept apart here.
Tests used:
[1] = Haemodynamic effects in conscious mice with telemetric implants (Example D); assay type: in vivo; conditions: dosages with antifibrotic properties
Method: The haemodynamic effects of i.e. example (1A) were analyzed in conscious mice. Telemetric implants (DSI®) were used. Signals were received with RMC1-DSI® receiver plates, compiled and analyzied with PONEMAH® physiology platform software.
The mice received either placebo (tylose), 0.3 mg/kg example 1A, 1mg/kg example 1A, 3mg/kg example 1A (Figure 1). The blood pressure and heart rate was monitored before and after application of placebo or the compounds.

[2] = tested on: established skin fibrosis in Tsk-mice; assay: Tight skin (Tsk-1) mouse model of systemic sclerosis (Example C): dermal thickness, hydroxyproline assay, αSMA immunohistochemistry; assay type: in vivo; conditions: for hypodermal thickness / Collagen content / Myofibroblast count: oral gavage, x-fold change with respect to vehicle-treated wild type mice; for hypodermal thickness: five weeks of treatment; for Collagen content: hydroxyproline assay; for Collagen content / Myofibroblast count: five weeks; for Myofibroblast count: αSMA positive cells
Method: (§1) The injected skin areas were fixed in 4% formalin and embedded in paraffin. Histological sections were stained with hematoxylin and eosin for the determination of dermal thickness. The dermal thickness was determined by measuring the largest distance between the epidermal-dermal junction and the dermal-subcutaneous fat junction. The measurements were performed by an examiner blinded to the treatment of the mice.
(§2) To analyze the collagen content in skin samples, hydroxyproline assay was performed. After digestion of punch biopsies (Ø 3mm) in 6M HCl for three hours at 120°C, chloramine T (0.06 M) was added and samples were mixed and incubated for 20 min at room temperature. 3.15 M perchloric acid and 20 % p-dimethylaminobenzaldehyde were added and samples were incubated for additional 20 min at 60 °C. The absorbance was determined at 557 nm.
(§3) The expression of α-smooth muscle actin (αSMA) was analyzed in paraffin embedded sections. After deparaffinization, samples were incubated with 3% bovine serum albumin followed by incubation with 3% H2O2. αSMA positive cells in mouse sections were detected by incubation with monoclonal anti-αSMA antibodies (clone 1A4, Sigma-Aldrich, Steinheim, Germany). Irrelevant isotype antibodies in the same concentration were used for control (Santa Cruz Biotechnology, Santa Cruz, CA, USA). Antibodies labeled with horseradish peroxidase (Dako, Hamburg, Germany) were used as secondary antibodies. The expression of the NICD and αSMA was visualized with DAB peroxidase substrate solution (Sigma-Aldrich). The number of myofibroblasts was counted from 4 different sections of lesional skin for each mouse by an examiner blinded to the treatment of the mice. Table 1: Effects of example 1A on development of Bleomycin-induced skin fibrosis.
In addition to the mouse model of bleomycin-induced dermal fibrosis, the tight-skin (Tsk-1) mouse model of systemic sclerosis was used to evaluate the anti-fibrotic potential of test drugs. Due to a dominant mutation in fibrillin-1, the phenotype of Tsk-1 is characterized by an increased hypodermal thickness. Genotyping of Tsk-1 mice was performed by PCR with the following primers: mutated fibrillin-1/ Tsk-1 forward primer: 5' - […] - 3', reverse primer: 5' - […] - 3'. Tsk-1 mice were treated daily with test drug or vehicle, respectively, by oral gavage. In addition, a group of corresponding wild type(pa/pa) mice was treated with vehicle. The treatment was started at an age of five weeks. After five weeks of treatment, mice were sacrificed by cervical dislocation and skin samples were obtained for analysis.
Histological analysis, hydroxyproline assay and immunhistochemistry for α-smooth muscel actin were performed as described in the Example 1A section. Table 4: Effects of example 1A on established skin fibrosis in Tsk-mice
Fibrosis parameters expressed as x-fold change with respect to vehicle-treated wild type mice

[3] = tested on: Bleomycin-induced skin fibrosis; assay: Bleomycin-induced skin fibrosis, preventive dose-regimen (Example A): dermal thickness, hydroxyproline assay, αSMA immunohistochemistry; assay type: in vivo, mice; conditions: for Collagen content: hydroxyproline assay; for Myofibroblast count: αSMA positive cells
Method: Local skin fibrosis was induced in 6-week-old, pathogen-free, female DBA/2 mice (Charles River, Sulzfeld, Germany) by repeated (every other day) subcutaneous injections of bleomycin (0,5 mg/ml in saline) in a defined area of the upper back. Control mice were injected in the same manner with saline only and served as reference. For all groups the injection volume was 100 µl. Concomitant to bleomycin treatment, the mice were treated orally with test drug or vehicle. Mice were treated a) with vehicle b) with 1 mg/kg example 1A, and c) with 3 mg/kg example 1A, twice a day via gavage for 21 days. After this 3 weeks treatment period, the animals were sacrificed and skin samples were obtained for analysis.
as §1, §2, §3
Fibrosis parameters expressed as x-fold change with respect to vehicle-treated control

[4] = tested on: human dermal fibroblasts; assay: TGFbeta-induced collagen gene expression and hydroxyproline deposition in human dermal fibroblasts in vitro (Example E); assay type: cell-based
Method: The effects of example 1A and vardenafil as standalone and in combination were analyzed in vitro in human dermal fibroblasts in vitro.

[5] = tested on: established Bleomycin-induced skin fibrosis; assay: Established bleomycin-induced skin fibrosis, therapeutic dose-regimen (Example B): dermal thickness, hydroxyproline assay, αSMA immunohistochemistry; assay type: in vivo, mice
Method: as §1, §2, §3
Local skin fibrosis was induced in 6-week-old, pathogen-free, female DBA/2 mice (Charles River, Sulzfeld, Germany) by repeated (every other day) subcutaneous injections of bleomycin (0,5 mg/ml in saline) in a defined area of the upper back. Control mice were injected in the same manner with saline only. For all groups the injection volume was 100 µl. The study comprises 4 arms with • a) mice receiving saline injection for 6 weeks (serving as reference) • b) mice receiving Bleomycin injection for 6 weeks • c) mice receiving Bleomycin injection for 6 weeks and additional treatment with example 1A (3 mg/kg) twice a day via gavage for the last 3 weeks • d) mice receiving the first 3 weeks bleomycin injections and the second 3 weeks saline injection.
After 6 weeks the animals were sacrificed and skin samples were obtained for analysis.
Histological analysis, hydroxyproline assay and immunhistochemistry for α-smooth muscel actin were performed as described in the Example 1A section. Table 3: Effects of example 1A (3mg/kg p.o.) on established Bleomycin-induced skin fibrosis Fibrosis parameters expressed as x-fold change with respect to vehicle-treated control (group a)

[6] = TSK mice, established fibrosis before start of treatment
[7] = bleomycin-induced SSc in mice, preventive dose-regimen
[8] = Bleomycin + 1 mg/kg example 1A, twice a day via gavage for 21 days, x-fold change with respect to vehicle-treated control
[9] = Bleomycin + 3mg/kg example 1A, twice a day via gavage for 21 days, x-fold change with respect to vehicle-treated control
[10] = Bleomycin 6 weeks + 3 weeks example 1A (3mg/kg p.o., twice a day, last 3 weeks), x-fold change with respect to vehicle-treated control (group a)
[11] = bleomycin-induced SSc in mice, therapeutic dose-regimen after established fibrosis

Q: Which “heamodynamic profile (blood pressure and heart rate)” value [1] does the source give for `Nc1nc(-c2nn(Cc3ccccc3F)c3ncccc23)ncc1C1CC1` [Example 1A, 3-(4-Amino-5-cyclopropylpyrimidin-2-yl)-1-(2-fluorobenzyl)-1H-pyrazolo[3,4-b]pyridine] here?
A: did not or only moderately, change

Q: And the dermal thickness [2, 6]?
A: significantly reduced

Q: And the “hydroxyproline content of the skin” value [2, 6]?
A: significantly reduced

Q: And the “number of dermal myofibroblasts” value [2, 6]?
A: significantly reduced

Q: What about the hypodermal thickness ([2]; Tsk-1 + 1 mg/kg example 1A) of the same molecule?
A: 3.46 x-fold change

Q: What about the hypodermal thickness ([2]; Tsk-1 + 3mg/kg example 1A) of the same molecule?
A: 2.88 x-fold change

Q: And the Collagen content ([2]; Tsk-1 + 1 mg/kg example 1A)?
A: 1.61 x-fold change

Q: And the Collagen content ([2]; Tsk-1 + 3mg/kg example 1A)?
A: 1.67 x-fold change

Q: And the Myofibroblast count ([2]; Tsk-1 + 1 mg/kg example 1A)?
A: 2.12 x-fold change

Q: What about the Myofibroblast count ([2]; Tsk-1 + 3mg/kg example 1A) of the same molecule?
A: 1.70 x-fold change

Q: What about the dermal thickness ([3]; Bleomycin + 1 mg/kg example 1A, twice a day via gavage for 21 days, DBA/2 mice, x-fold change with respect to vehicle-treated control) of the same molecule?
A: 1.37 x-fold change

Q: And the dermal thickness ([3]; Bleomycin + 3mg/kg example 1A, twice a day via gavage for 21 days, DBA/2 mice, x-fold change with respect to vehicle-treated control)?
A: 1.19 x-fold change

Q: What about the dermal thickness [3, 7] of the same molecule?
A: significantly reduced

Q: And the “hydroxyproline content of the skin” value [3, 7]?
A: significantly reduced

Q: What about the “number of dermal myofibroblasts” value [3, 7] of the same molecule?
A: significantly reduced

Q: And the Collagen content [3, 8]?
A: 1.19 x-fold change

Q: What about the Collagen content [3, 9] of the same molecule?
A: 1.11 x-fold change

Q: And the Myofibroblast count [3, 8]?
A: 3.23 x-fold change

Q: What about the Myofibroblast count [3, 9] of the same molecule?
A: 1.90 x-fold change

Q: What about the “TGF-induced collagen gene expression” value [4] of the same molecule?
A: significantly blocked

Q: And the “TGFbeta-induced Hydroxyproline (HP) deposition” value [4]?
A: significantly blocked

Q: And the “TGF-induced collagen gene expression” value ([4]; listed as example 1A)?
A: blocked

Q: And the Myofibroblast count [5, 10]?
A: 1.68 x-fold change

Q: What about the dermal thickness [5, 10] of the same molecule?
A: 1.26 x-fold change

Q: What about the dermal thickness [5, 11] of the same molecule?
A: significantly reduced

Q: And the “hydroxyproline content of the skin” value [5, 11]?
A: significantly reduced

Q: And the “number of dermal myofibroblasts” value [5, 11]?
A: significantly reduced

Reference: patent EP2594270A2, “The use of sGC stimulators, sGC activators, alone and combinations with PDE5 inhibitors for the treatment of systemic sclerosis (SSc)” (BIP Patents, priority 2011, dated 2013)
